Experimental findings from ChEMBL document CHEMBL3808337, “Rapid Discovery of Pyrido[3,4-d]pyrimidine Inhibitors of Monopolar Spindle Kinase 1 (MPS1) Using a Structure-Based Hybridization Approach” (J Med Chem, 2016) are described below.

Among the targets are Cytochrome P450 2D6 (Homo sapiens, UniProt P10635); Cytochrome P450 3A4 (Homo sapiens, UniProt P08684); CDK2/Cyclin A2 (Homo sapiens, UniProt P24941).
The next data set has as its target T1, Cytochrome P450 1A2 (Homo sapiens, UniProt P05177).
T1 sequence (P05177 whole entry): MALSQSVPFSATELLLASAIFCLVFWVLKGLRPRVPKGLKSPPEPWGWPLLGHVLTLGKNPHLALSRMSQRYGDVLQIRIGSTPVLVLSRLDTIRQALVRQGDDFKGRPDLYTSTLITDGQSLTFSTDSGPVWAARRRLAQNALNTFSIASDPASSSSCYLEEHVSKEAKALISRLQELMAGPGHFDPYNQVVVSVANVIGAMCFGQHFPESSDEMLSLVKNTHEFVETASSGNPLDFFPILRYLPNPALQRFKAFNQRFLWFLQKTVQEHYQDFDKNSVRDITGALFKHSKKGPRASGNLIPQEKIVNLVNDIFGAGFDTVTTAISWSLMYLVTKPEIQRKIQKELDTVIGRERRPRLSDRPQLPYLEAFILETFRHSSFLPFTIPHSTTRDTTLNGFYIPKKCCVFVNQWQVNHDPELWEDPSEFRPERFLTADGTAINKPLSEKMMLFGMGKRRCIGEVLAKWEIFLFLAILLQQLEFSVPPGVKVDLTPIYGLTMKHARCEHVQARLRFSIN
Nature of the data set: Inhibition of CYP1A2 (unknown origin). The format is ADME.

The target in a further data set is Cytochrome P450 2C9 (Homo sapiens, UniProt P11712). The data set can be described thus: Inhibition of CYP2C9 (unknown origin). The format is ADME.
The next data set addresses Cytochrome P450 2C19 (Homo sapiens, UniProt P33261). Nature of the data set: Inhibition of CYP2C19 (unknown origin). The format is ADME.
Data set [1] in a line: Drug metabolism in CD1 mouse liver microsomes at 10 uM after 30 mins by LCMS analysis. Particulars: read-out: Drug metabolism. Type of data set: ADME. Background: Liver microsomes are vesicles of endoplasmic reticulum, rich in cytochrome P450 enzymes.
Data set [2] in a line: Antiproliferative activity against human HCT116 cells assessed as cell viability after 72 hrs by MTT assay. The format is functional. Particulars: HCT-116, 72 h. (In general: Tetrazolium dyes change colour on reduction, which living cells bring about.)

What is called IC50 is the concentration that inhibits the measured activity by half. The low end stands for higher potency, the high end for lower potency. As a reminder, the Ki is a dissociation constant, usually derived from enzyme kinetics or from competition with a known ligand. Read a high Ki as lower affinity. As a reminder, the GI50 is the concentration giving 50% growth inhibition.

Chain of Cytochrome P450 2C9 (P11712 whole entry): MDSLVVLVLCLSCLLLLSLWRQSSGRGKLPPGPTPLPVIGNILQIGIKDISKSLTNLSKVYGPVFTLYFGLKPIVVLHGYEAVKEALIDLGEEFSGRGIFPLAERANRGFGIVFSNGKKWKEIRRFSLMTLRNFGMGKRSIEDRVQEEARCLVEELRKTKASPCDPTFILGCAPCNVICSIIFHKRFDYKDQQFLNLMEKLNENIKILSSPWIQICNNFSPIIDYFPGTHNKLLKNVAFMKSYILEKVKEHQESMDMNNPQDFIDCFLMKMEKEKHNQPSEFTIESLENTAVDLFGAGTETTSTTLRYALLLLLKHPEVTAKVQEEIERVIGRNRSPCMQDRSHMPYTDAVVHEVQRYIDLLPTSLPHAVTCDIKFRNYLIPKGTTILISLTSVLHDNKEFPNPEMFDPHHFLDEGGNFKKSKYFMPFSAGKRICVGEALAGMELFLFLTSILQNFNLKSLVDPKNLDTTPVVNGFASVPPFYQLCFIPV
Chain of Cytochrome P450 2D6 (P10635 whole entry): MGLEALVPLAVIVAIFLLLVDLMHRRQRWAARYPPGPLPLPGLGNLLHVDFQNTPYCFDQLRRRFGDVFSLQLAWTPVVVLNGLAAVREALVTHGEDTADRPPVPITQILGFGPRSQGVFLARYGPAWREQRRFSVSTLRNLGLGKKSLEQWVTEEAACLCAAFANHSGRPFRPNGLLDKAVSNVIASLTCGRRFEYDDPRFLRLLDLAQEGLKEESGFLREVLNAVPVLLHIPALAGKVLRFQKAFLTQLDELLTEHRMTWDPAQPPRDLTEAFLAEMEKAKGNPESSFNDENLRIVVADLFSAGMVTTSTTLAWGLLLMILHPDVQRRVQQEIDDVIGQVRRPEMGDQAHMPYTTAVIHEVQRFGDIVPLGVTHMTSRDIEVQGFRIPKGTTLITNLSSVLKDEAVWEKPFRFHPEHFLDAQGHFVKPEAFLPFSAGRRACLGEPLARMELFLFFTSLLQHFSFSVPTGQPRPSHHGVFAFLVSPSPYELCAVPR
Chain of Cytochrome P450 3A4 (P08684 whole entry): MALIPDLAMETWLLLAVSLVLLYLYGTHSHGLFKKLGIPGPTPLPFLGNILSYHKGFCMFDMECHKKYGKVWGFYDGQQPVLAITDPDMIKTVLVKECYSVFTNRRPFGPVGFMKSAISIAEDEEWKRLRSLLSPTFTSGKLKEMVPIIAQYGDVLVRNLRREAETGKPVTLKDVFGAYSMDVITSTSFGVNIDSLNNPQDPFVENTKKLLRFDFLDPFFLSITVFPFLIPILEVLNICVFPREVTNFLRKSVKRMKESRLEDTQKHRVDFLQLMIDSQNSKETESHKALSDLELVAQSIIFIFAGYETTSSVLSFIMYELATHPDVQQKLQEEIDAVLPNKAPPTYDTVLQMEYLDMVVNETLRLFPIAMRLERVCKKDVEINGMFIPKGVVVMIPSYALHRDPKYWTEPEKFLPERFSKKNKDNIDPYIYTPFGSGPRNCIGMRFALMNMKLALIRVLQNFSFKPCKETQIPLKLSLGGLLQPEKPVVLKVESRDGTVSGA
Chain of Cytochrome P450 2C19 (P33261 whole entry): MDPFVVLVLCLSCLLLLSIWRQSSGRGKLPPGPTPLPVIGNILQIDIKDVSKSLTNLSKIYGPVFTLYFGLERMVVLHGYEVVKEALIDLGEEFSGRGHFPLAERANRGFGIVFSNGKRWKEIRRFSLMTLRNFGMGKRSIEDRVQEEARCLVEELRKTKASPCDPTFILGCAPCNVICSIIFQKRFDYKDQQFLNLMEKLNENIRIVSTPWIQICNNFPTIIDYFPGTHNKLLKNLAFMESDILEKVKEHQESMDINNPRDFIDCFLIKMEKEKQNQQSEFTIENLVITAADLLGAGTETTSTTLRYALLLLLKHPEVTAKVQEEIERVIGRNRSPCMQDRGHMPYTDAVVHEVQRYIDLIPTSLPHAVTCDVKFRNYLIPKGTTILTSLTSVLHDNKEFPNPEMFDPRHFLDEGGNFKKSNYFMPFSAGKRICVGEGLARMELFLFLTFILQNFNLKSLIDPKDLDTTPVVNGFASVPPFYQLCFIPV

As to `Cn1cc(-c2cc3cnc(Nc4ccc(-c5cncn5C)cc4Cl)cc3n2C(=O)OC(C)(C)C)cn1`, the IC50 against Cytochrome P450 2D6, against Cytochrome P450 1A2, at Cytochrome P450 2C9, at Cytochrome P450 3A4 and against Cytochrome P450 2C19 was below 1000 nM throughout.
In the case of `CCOc1cc(-c2cnn(C)c2)ccc1Nc1ncc2ccnc(-c3cnn(C)c3)c2n1`, the IC50 at CDK2/Cyclin A2 was above 45000 nM. The metabolised at 0.5 h, 10 µM in data set [1] was 45%.
Take `COc1cc(-c2cnn(C)c2)ccc1Nc1ncc2ccnc(NC3CCCCC3)c2n1`: on CDK2/Cyclin A2, the IC50 turned out to be 190 nM and the Ki was 100 nM. Moreover, the metabolised at 0.5 h, 10 µM in data set [1] came to 22%. Moreover, the GI50 in data set [2] was found to be 120 nM.
Consider `COc1cc(-c2cnn(C)c2)ccc1Nc1ncc2ccnc(C3CC3)c2n1`, for which, in data set [1], the metabolised at 0.5 h, 10 µM amounted to 51%.
As for `Cc1cc(-c2cnn(C)c2)ccc1Nc1ncc2ccnc(-c3cnn(C)c3)c2n1`, the metabolised at 0.5 h, 10 µM in data set [1] amounted to 63%.
Turning to `COc1cc(-c2cnn(C)c2)ccc1Nc1ncc2ccnc(-c3ccccc3)c2n1`, in data set [1], the metabolised at 0.5 h, 10 µM amounted to 40%.
`COc1cc(-c2cnn(C)c2)ccc1Nc1ncc2ccnc(N[C@H](C)C(C)(C)C)c2n1`: the metabolised at 0.5 h, 10 µM in data set [1] worked out at 25%. In addition, in data set [2], the GI50 amounted to 220 nM.
For the compound `COc1cc(-c2cnn(C)c2)ccc1Nc1ncc2ccnc(N3CCCC3)c2n1`, the metabolised at 0.5 h, 10 µM in data set [1] amounted to 64%. In data set [2], the GI50 was 470 nM.
Turning to `COc1cc(-c2cnn(C)c2)ccc1Nc1ncc2ccnc(NCC(C)(C)C)c2n1`, the metabolised at 0.5 h, 10 µM in data set [1] turned out to be 31%. For the same compound, the GI50 in data set [2] worked out at 340 nM.
Turning to `COCCOc1cc(-c2cnn(C)c2)ccc1Nc1ncc2ccnc(-c3cnn(C)c3)c2n1`, in data set [1], the metabolised at 0.5 h, 10 µM was 59%.
With `COc1cc(-c2cnn(C)c2)ccc1Nc1ncc2ccnc(NCC(C)C)c2n1`, the metabolised at 0.5 h, 10 µM in data set [1] was determined as 66%. For the same compound, the GI50 in data set [2] stood at 1100 nM.
On CDK2/Cyclin A2, `COc1ccc(Nc2cc3c(-c4ccco4)cccc3cn2)cc1` gave an IC50 of 31100 nM.
For the compound `COc1cc(-c2cnn(C)c2)ccc1Nc1ncc2ccnc(-c3cnn(C)c3)c2n1`, the metabolised at 0.5 h, 10 µM in data set [1] is 73%.
As for `COc1cc(-c2cnn(C)c2)ccc1Nc1ncc2ccnc(NCC3CC3)c2n1`, the metabolised at 0.5 h, 10 µM in data set [1] amounted to 33%. Also, the GI50 in data set [2] was 320 nM.
`COc1cc(-c2cnn(C)c2)ccc1Nc1ncc2ccnc(SC3CCCCC3)c2n1` registered an IC50 on CDK2/Cyclin A2 above 10000 nM.
Take `COc1ccc(Nc2cc3c(-c4cnn(C)c4)cccc3cn2)cc1`: 1220 nM corresponded to half-maximal inhibition on CDK2/Cyclin A2 (IC50).
Consider `CC(C)Oc1cc(-c2cnn(C)c2)ccc1Nc1ncc2ccnc(-c3cnn(C)c3)c2n1`, for which the IC50 on CDK2/Cyclin A2 is above 10000 nM. Also, the metabolised at 0.5 h, 10 µM in data set [1] stood at 45%.
